Laboratory results: PubChem BioAssay AID1963837 (Molecular Pharmacology Branch, DTP, NCI, 2024)

Each compound was assayed on 843126-344-R-J1-PDC complex spheroid viability (assay: Anticancer human tumor 843126-344-R-J1-PDC patient-derived melanoma cell line growth inhibition [POLQ]). Details: second compound 0.0316 µM; first compound 0.316 µM; hits give low values.
How it was run: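 Growth inhibition in 3D: complex spheroids (tumor PDC, HUVEC, MSC) treated with POLQ inhibitor combinations; where Cmax unknown, highest tested concentration 10 microM, except SN-38 at 1 microM.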
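Further: spheroids exposed to drugs for seven days before readout.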

With O=C(c1cc(Cc2n[nH]c(=O)c3ccccc23)ccc1F)N1CCN(C(=O)C2CC2)CC1 + Cc1cccc(N(C)C(=O)C2C(O)CCN2c2nc(C)cc(C(F)(F)F)c2C#N)c1 the viability, T/C was 84.3%.

Same assay, conditions: second compound 0.0316 µM; first compound 1 µM; hits give low values

Going from C=CCn1c(=O)c2cnc(Nc3ccc(N4CCN(C)CC4)cc3)nc2n1-c1cccc(C(C)(C)O)n1 + Cc1cccc(N(C)C(=O)C2C(O)CCN2c2nc(C)cc(C(F)(F)F)c2C#N)c1 to O=C(c1cc(Cc2n[nH]c(=O)c3ccccc23)ccc1F)N1CCN(C(=O)C2CC2)CC1 + Cc1cccc(N(C)C(=O)C2C(O)CCN2c2nc(C)cc(C(F)(F)F)c2C#N)c1, the viability, T/C rises from 81.8% to 82.3%.

First: CCc1c2c(nc3ccc(O)cc13)-c1cc3c(c(=O)n1C2)COC(=O)[C@]3(O)CC + Cc1cccc(N(C)C(=O)C2C(O)CCN2c2nc(C)cc(C(F)(F)F)c2C#N)c1
Second: CNCc1ccc(-c2[nH]c3cc(F)cc4c3c2CCNC4=O)cc1 + Cc1cccc(N(C)C(=O)C2C(O)CCN2c2nc(C)cc(C(F)(F)F)c2C#N)c1
The viability, T/C of the first is lower: 50.5% for the first, 91% for the second.

Same assay, conditions: second compound 0.0316 µM; first compound 3.16 µM; hits give low values

Compared with CNCc1ccc(-c2[nH]c3cc(F)cc4c3c2CCNC4=O)cc1 + Cc1cccc(N(C)C(=O)C2C(O)CCN2c2nc(C)cc(C(F)(F)F)c2C#N)c1, O=C(c1cc(Cc2n[nH]c(=O)c3ccccc23)ccc1F)N1CCN(C(=O)C2CC2)CC1 + Cc1cccc(N(C)C(=O)C2C(O)CCN2c2nc(C)cc(C(F)(F)F)c2C#N)c1 is higher in viability, T/C: 79.4% for the first, 91.9% for the second.

Same assay, conditions: second compound 0.0316 µM; first compound 10 µM; hits give low values

Compared with CNCc1ccc(-c2[nH]c3cc(F)cc4c3c2CCNC4=O)cc1 + Cc1cccc(N(C)C(=O)C2C(O)CCN2c2nc(C)cc(C(F)(F)F)c2C#N)c1, O=C(c1cc(Cc2n[nH]c(=O)c3ccccc23)ccc1F)N1CCN(C(=O)C2CC2)CC1 + Cc1cccc(N(C)C(=O)C2C(O)CCN2c2nc(C)cc(C(F)(F)F)c2C#N)c1 is lower in viability, T/C: 79.2% for the first, 74.2% for the second.

Same assay, conditions: second compound 0.1 µM; first compound 0.000316 µM; hits give low values

Compared with CC[C@@]1(O)C(=O)OCc2c1cc1n(c2=O)Cc2cc3c(CN(C)C)c(O)ccc3nc2-1 + Cc1cccc(N(C)C(=O)C2C(O)CCN2c2nc(C)cc(C(F)(F)F)c2C#N)c1, Cn1ncnc1[C@H]1c2n[nH]c(=O)c3cc(F)cc(c23)N[C@@H]1c1ccc(F)cc1 + Cc1cccc(N(C)C(=O)C2C(O)CCN2c2nc(C)cc(C(F)(F)F)c2C#N)c1 is higher in viability, T/C: 86% for the first, 94.8% for the second.

Same assay, conditions: second compound 0.1 µM; first compound 0.001 µM; hits give low values

Going from CC[C@@]1(O)C(=O)OCc2c1cc1n(c2=O)Cc2cc3c(CN(C)C)c(O)ccc3nc2-1 + Cc1cccc(N(C)C(=O)C2C(O)CCN2c2nc(C)cc(C(F)(F)F)c2C#N)c1 to Cn1ncnc1[C@H]1c2n[nH]c(=O)c3cc(F)cc(c23)N[C@@H]1c1ccc(F)cc1 + Cc1cccc(N(C)C(=O)C2C(O)CCN2c2nc(C)cc(C(F)(F)F)c2C#N)c1, the viability, T/C falls from 92.9% to 91.6%.

Same assay, conditions: second compound 0.1 µM; first compound 0.00316 µM; hits give low values

First: C=CCn1c(=O)c2cnc(Nc3ccc(N4CCN(C)CC4)cc3)nc2n1-c1cccc(C(C)(C)O)n1 + Cc1cccc(N(C)C(=O)C2C(O)CCN2c2nc(C)cc(C(F)(F)F)c2C#N)c1
Second: CCc1c2c(nc3ccc(O)cc13)-c1cc3c(c(=O)n1C2)COC(=O)[C@]3(O)CC + Cc1cccc(N(C)C(=O)C2C(O)CCN2c2nc(C)cc(C(F)(F)F)c2C#N)c1
The viability, T/C of the first is higher: 111% for the first, 72.8% for the second.

First: CC[C@@]1(O)C(=O)OCc2c1cc1n(c2=O)Cc2cc3c(CN(C)C)c(O)ccc3nc2-1 + Cc1cccc(N(C)C(=O)C2C(O)CCN2c2nc(C)cc(C(F)(F)F)c2C#N)c1
Second: Cn1ncnc1[C@H]1c2n[nH]c(=O)c3cc(F)cc(c23)N[C@@H]1c1ccc(F)cc1 + Cc1cccc(N(C)C(=O)C2C(O)CCN2c2nc(C)cc(C(F)(F)F)c2C#N)c1
The viability, T/C of the first is higher: 110% for the first, 96.6% for the second.

Same assay, conditions: second compound 0.1 µM; first compound 0.01 µM; hits give low values

Going from C=CCn1c(=O)c2cnc(Nc3ccc(N4CCN(C)CC4)cc3)nc2n1-c1cccc(C(C)(C)O)n1 + Cc1cccc(N(C)C(=O)C2C(O)CCN2c2nc(C)cc(C(F)(F)F)c2C#N)c1 to CCc1c2c(nc3ccc(O)cc13)-c1cc3c(c(=O)n1C2)COC(=O)[C@]3(O)CC + Cc1cccc(N(C)C(=O)C2C(O)CCN2c2nc(C)cc(C(F)(F)F)c2C#N)c1, the viability, T/C falls from 113% to 52.8%.

First: CC[C@@]1(O)C(=O)OCc2c1cc1n(c2=O)Cc2cc3c(CN(C)C)c(O)ccc3nc2-1 + Cc1cccc(N(C)C(=O)C2C(O)CCN2c2nc(C)cc(C(F)(F)F)c2C#N)c1
Second: Cn1ncnc1[C@H]1c2n[nH]c(=O)c3cc(F)cc(c23)N[C@@H]1c1ccc(F)cc1 + Cc1cccc(N(C)C(=O)C2C(O)CCN2c2nc(C)cc(C(F)(F)F)c2C#N)c1
The viability, T/C of the first is higher: 80.9% for the first, 73% for the second.

Same assay, conditions: second compound 0.1 µM; first compound 0.0316 µM; hits give low values

Going from C=CCn1c(=O)c2cnc(Nc3ccc(N4CCN(C)CC4)cc3)nc2n1-c1cccc(C(C)(C)O)n1 + Cc1cccc(N(C)C(=O)C2C(O)CCN2c2nc(C)cc(C(F)(F)F)c2C#N)c1 to O=C(c1cc(Cc2n[nH]c(=O)c3ccccc23)ccc1F)N1CCN(C(=O)C2CC2)CC1 + Cc1cccc(N(C)C(=O)C2C(O)CCN2c2nc(C)cc(C(F)(F)F)c2C#N)c1, the viability, T/C rises from 103% to 110%.

Compared with CC[C@@]1(O)C(=O)OCc2c1cc1n(c2=O)Cc2cc3c(CN(C)C)c(O)ccc3nc2-1 + Cc1cccc(N(C)C(=O)C2C(O)CCN2c2nc(C)cc(C(F)(F)F)c2C#N)c1, CCc1c2c(nc3ccc(O)cc13)-c1cc3c(c(=O)n1C2)COC(=O)[C@]3(O)CC + Cc1cccc(N(C)C(=O)C2C(O)CCN2c2nc(C)cc(C(F)(F)F)c2C#N)c1 is lower in viability, T/C: 67.1% for the first, 60.6% for the second.

Going from CNCc1ccc(-c2[nH]c3cc(F)cc4c3c2CCNC4=O)cc1 + Cc1cccc(N(C)C(=O)C2C(O)CCN2c2nc(C)cc(C(F)(F)F)c2C#N)c1 to Cn1ncnc1[C@H]1c2n[nH]c(=O)c3cc(F)cc(c23)N[C@@H]1c1ccc(F)cc1 + Cc1cccc(N(C)C(=O)C2C(O)CCN2c2nc(C)cc(C(F)(F)F)c2C#N)c1, the viability, T/C rises from 84.7% to 88.7%.

Same assay, conditions: second compound 0.1 µM; first compound 0.1 µM; hits give low values

Compared with C=CCn1c(=O)c2cnc(Nc3ccc(N4CCN(C)CC4)cc3)nc2n1-c1cccc(C(C)(C)O)n1 + Cc1cccc(N(C)C(=O)C2C(O)CCN2c2nc(C)cc(C(F)(F)F)c2C#N)c1, CCc1c2c(nc3ccc(O)cc13)-c1cc3c(c(=O)n1C2)COC(=O)[C@]3(O)CC + Cc1cccc(N(C)C(=O)C2C(O)CCN2c2nc(C)cc(C(F)(F)F)c2C#N)c1 is lower in viability, T/C: 113% for the first, 58.8% for the second.

First: CC[C@@]1(O)C(=O)OCc2c1cc1n(c2=O)Cc2cc3c(CN(C)C)c(O)ccc3nc2-1 + Cc1cccc(N(C)C(=O)C2C(O)CCN2c2nc(C)cc(C(F)(F)F)c2C#N)c1
Second: CNCc1ccc(-c2[nH]c3cc(F)cc4c3c2CCNC4=O)cc1 + Cc1cccc(N(C)C(=O)C2C(O)CCN2c2nc(C)cc(C(F)(F)F)c2C#N)c1
The viability, T/C of the first is lower: 59.7% for the first, 77% for the second.
